Reference: US9192688B2 (priority 2009, dated 2015)
Read-outs that look alike come from different tables or passages of the source.

What was measured:
[1] = tested on: test organisms (Bacillus cereus, Staphylococcus aureus, Salmonella typhimurium, Escherichia coli, Saccharomyces cerevisiae, bacteriophage); conditions: for effect on viable count of test organisms: 5 kg meat
model prion protein = conditions: T5 protocol; 5 g meat, 20% moisture, 100 ug model prion protein

## OO [gaseous hydrogen peroxide, hydrogen peroxide]
[1]; trial T1: 30 ml 30% (v/v) H2O2 vaporised, 2.6 g/kg, 0.01 g/kg/s, 30 minutes contact, about 0.01 kPa
  effect on viable count of test organisms: little or no effect
[1]; trial T2: 60 ml 30% (v/v) H2O2 vaporised, 0.01 g/kg/s, 30 minutes contact
  effect on viable count of test organisms: little or no effect
[1]; trial T3: 90 ml 30% (v/v) H2O2, 7.9 g/kg meat, 0.01 g/kg/s, 30 minutes contact
  effect on the organisms: significant effect
[1]; trial T5: 30 ml introduced rapidly over about 5 seconds (0.5 g/kg/s), then 60 ml at 0.01 g/kg/s
  inactivation compared with T3 on increasing the contact rate: enhanced
S. aureus
  effect on viable count: elimination
S. typhimurium
  effect on viable count: elimination
E. coli
  effect on viable count: elimination
Mesophilic organisms
  effect on viable count: elimination
S. cerevisiae
  inactivation of S. cerevisiae: particularly striking effect
Model prion protein
  prion content after treatment versus positive control: significantly destroyed
